Assay [1] relates to M. pneumoniae. As to the kind of experiment: Mycoplasma overlay assay: binding of [3H]-M. pneumoniae to glycolipids on thin layer chromatograms. Details: species or system Mycoplasma pneumoniae strain M129. As to conditions: for Binding (ability to bind M. pneumoniae): Table I, class by amount of lipid bound; for binding of M. pneumoniae to glycolipid (in words): thin layer chromatogram overlay. The method, then:
(§1) Virulent M. pneumoniae strain M129, passage 5-15, were grown and metabolically labelled with [^3 H]palmitic acid, 12-17 Ci/mole, as described by Chandler et al. in Infect. Immun. 37: 942, 1982. The organisms were passed four times through a 26 gauge needle and suspended to approximately 10^7 cpm/ml of degassed RPMI 1640 medium containing 1% bovine serum albumin and 25 mM HEPES, pH 7.3.
M. pneumoniae were bound to glycolipids separated on thin-layer chromatograms as described in detail for other bacteria by Krivan et al., Proc. Natl. Acad. Sci. 85: 6157-6161, 1988, and Krivan et al., Arch. Biochem. Biophys. 260:493-496, 1988. Briefly, glycolipids were separated by thin-layer chromatography on aluminum-backed silica gel high-performance plates developed with chlooform:methanol:0.25% CaCl2 in water (60:35:8). After chromatography, the plates were coated with 0.1% polyisobutylmethacrylate, soaked in 0.05 M Tris-HCl, pH 7.6, containing […] sodium chloride, 5 mM CaCl2, 0.2 mM phenylmethane-sulfonyl fluoride, and 1% bovine serum albumin (TBS-BSA) and incubated for three hours at 25° C. with 60 μl/cm^2 of [^3 H]-labelled M. pneumoniae, approximately 10^7 cpm/ml of RPMI-BSA. The plates were gently washed five times in 0.01 M sodium phosphate, pH 7.2, containing 0.15 M sodium chloride (PBS) to remove unbound organisms, dried, and exposed for 24 hours to Ultrofilm ^3 H (2208-190) high speed film.
To obtain the results shown in FIG. 1, glycolipids were chromatographed on aluminum-backed silica gel HPTLC plates developed in chloroform/methanol/0.25% CaCl2 in water, 60:35:8. The plates were coated with plastic, soaked in Tris-BSA, and incubated for three hours at 25° C. with [^3 H]-palmitate-labelled M. pneumoniae suspended in RPMI 1640 containing 1% BSA and 25 mM HEPES, pH 7.3, as described above (Panel A), or sprayed with orcinol reagent to identify glycolipids (Panel B). Lane a, acidic glycolipid standards sulfatide (0.5 μg), GM3 (2 μg), GM2 (2 μg), GD1a (2 μg), GD1b (2 μg), GT1b (2 μg); lane b, neutral standards galactosyl ceramide (4 μg), lactosylceramide (4 μg), globotriaosylceramide (2 μg), c2(0.5 μg). and c3 (o.1 μg); lane d, seminolipid (2 μg); lane e, cholesterol 3 -sulfate (2 μg); lane f, human trachea acidic glycolipids from 100 mg wet weight […]; lane h, α2-3sialylparagloboside (2 μg); lane 1, I-active monosialylganglioside from bovine erythrocytes (2 μg).

The test system of assay [2] is M. pneumoniae. Nature of the assay: Solid-phase binding of [3H]-M. pneumoniae to purified glycolipids immobilized in microtiter plates. Details: species or system Mycoplasma pneumoniae strain M129. Particulars: microtiter plate; up to 10 μg per well. The method, then: as §1
(§2) The binding of M. pneumoniae to purified glycolipids immobilized in microtiter plates was measured as described by Krivan et al. in Proc. Natl. Acad. Sci., op. cit. Purified glycolipids were serially diluted in 25 μl of methanol containing 0.1 μg each of the auxiliary lipids cholesterol and phosphatidylcholine. After the solutions were dried by evaporation, the wells were filled with TBS-BSA, emptied after one hour, rinsed with RPMI-BSA, and incubated with 25 μl of [^3 H]-M. pneumoniae, approximately 10^7 cpm/ml RPMI-BSA. After incubation for two hours at 37° C., unless otherwise stated, the wells were washed five times with saline and bound M. pneumoniae was quantified by scintillation counting in Aquasol. For inhibition studies, various polysaccharides were serially diluted in […] of [^3 H]-M. pneumoniae.
To obtain the results shown in FIG. 2, lipids in […] each of the auxiliary lipids cholesterol and phosphatidylcholine were evaporated in flat bottom wells of polyvinylchloride microtiter plates. The wells were blocked with 1% albumin for one hour, washed twice with RPMI-BSA, and incubated at 25° C. with 25 μl of [^3 H]-M. pneumoniae, approximately […]. After two hours, the wells were washed five times with saline, cut from the plate, and bound radioactivity was quantified in a scintillation counter. In control experiments, organisms were incubated with auxiliary lipids only to correct for nonspecific binding, typically <1% of the total radioactivity added. M. pneumoniae binding was determined in RPMI-BSA for sulfatide ( .circle. ), lactosylceramide, paragloboside, and cholesterol sulfate, ceramide trihexoside, globoside, GM1, GM2, or GM3 ( .largecircle.).
Binding of [^3 H]-M. pneumoniae was determined in RPMI-BSA for two hours at 4° C., 25° C. ( .circle. ), 37° C., and at 37° C. in BSA without RPMI (Δ).

Assay [3] deals with M. pneumoniae. As to the kind of experiment: M. pneumoniae adhesion to immobilized glycoproteins adsorbed on plastic. It counts as binding, Mycoplasma pneumoniae strain M129. Particulars: for M. pneumoniae adhesion to immobilized glycoprotein (in words): adsorbed on plastic; for amount of glycoprotein coated that promotes adhesion: coated wells; for Relative binding activity: relative to fetuin = 1.0, from amount for half maximal binding, mean of 2 or 3 experiments. The method, then: Glycoproteins dissolved in 0.01 M sodium phosphate buffer, pH 7.4, containing 150 mM NaCl, 1 mM CaCl2, and 0.01% NaN3 were adsorbed onto plastic polyvinylchloride […] microtiter plates by incubation for 16 hours at 4° C. The unbound proteins were removed, and the wells were filled with tris-BSA and incubated for 30 minutes at room temperature. The wells were rinsed with RPMI1640 containing 25 mM HEPES, pH 7.3, and 1% bovine serum albumin. M. pneumoniae strain M129 labelled with [^3 H]-palmitate were dispersed in RPMI-BSA by passing four times through a 26 gauge needle, and 50 μl of the suspension was applied to the wells. After incubation for 60 minutes at 37° C., the wells were washed five times with saline and the labelled M. pneumoniae bound to the proteins were quantified by scintillation counting in Aquasol. […]

The test system of assay [4] is M. pneumoniae binding to sulfatide. Nature of the assay: Inhibition of M. pneumoniae binding to sulfatide adsorbed on plastic. Details: species or system Mycoplasma pneumoniae strain M129. As to conditions: for inhibition of binding to sulfatide at 100 μg/ml (in words): sulfatide in microtiter plates. The method, then: as §1, §2
To obtain the results shown in FIG. 4, polysaccharides were serially diluted in 25 μl of RPMI-BSA in microtiter wells previously coated with 1 μg of purified sulfatide. Binding was determined after incubation of two hours at 37° C. with 25 μl of [^3 H]-M. pneumoniae with the indicated concentration of dextran ( .circle. ) or dextran sulfate.

Entries after “also recorded” stand apart in the source; their conditions may differ. Where a name gives a salt, the structure may show the parent alone.

Regarding “Lactoisooctaosylceramide [I-active Lacto- isooctaosylcer]”, the “Binding (ability to bind M. pneumoniae)” value in the assay with M. pneumoniae [1] was “- (no binding to 4 μg of lipid)”.

In the case of Alpha2-3-sialylparagloboside (NeuGc), in the assay on M. pneumoniae [1], the “Binding (ability to bind M. pneumoniae)” value is “- (no binding to 4 μg of lipid)”.

For “Galactosyl ceramide-I6-sulfate [Sulfatide Gal(6SO4)β11Cer]”, the “Binding (ability to bind M. pneumoniae)” value in the assay on M. pneumoniae [1] was “+++ (positive binding to less than 0.5 μg)”. Moreover, the “binding of M. pneumoniae to glycolipid (in words)” value (shortened to “binding … to glycolipid (in words)”) in the assay on M. pneumoniae [1] (listed as 6-sulfate isomer) was “does not discriminate between galactosyl ceramide I^3 -sulfate and its unnatural 6-sulfate isomer”; in the assay on M. pneumoniae [1] (listed as isomer of sulfatide in which the terminal sulfate is linked to the 6-position of) it was “bound”. `CC(C)CCC[C@@H](C)[C@H]1CC[C@H]2[C@@H]3CC=C4C[C@@H](OS(=O)(=O)O)CC[C@]4(C)[C@H]3CC[C@]12C` [cholesterol sulfate, cholesterol 3 -sulfate]: in the assay with M. pneumoniae [1], the “binding … to glycolipid (in words)” value is “does not bind”. The “binding of M. pneumoniae to immobilized lipid (in words)” value in the assay with M. pneumoniae [2] is “no binding was detected”.

On to “α2-3-sialyllactoneohexaosylceramide [Sialylneolacto-hexaoslycer]”, for which the “Binding (ability to bind M. pneumoniae)” value in the assay with M. pneumoniae [1] was “- (no binding to 4 μg of lipid)”. On to Lactosylceramide [Lactosylcer (CDH)], for which, in the assay on M. pneumoniae [1], the “Binding (ability to bind M. pneumoniae)” value was “++ (0.5 to 2 μg)” and the “binding … to glycolipid (in words)” value is reported as “weakly”. The “binding … to glycolipid (in words)” value with M. pneumoniae [1] (listed as lactosylderamide) is given as “binds to high amounts”. The “binding of M. pneumoniae to immobilized lipid (in words)” value with M. pneumoniae [2] was “bound weakly”. For the molecule “Bovine Fetuin: major protein in fetal calf serum”, in the assay on M. pneumoniae [3], the “M. pneumoniae adhesion to immobilized glycoprotein (in words)” value (from here on “M. pneumoniae adhesion”) is “promote dose-dependent and saturable adhesion”; the “amount of glycoprotein coated that promotes adhesion” value is “less than 10 ng”; the Relative binding activity was determined as 1.0.

With glucosylceramide [Glucosylcer (CMH)], in the assay with M. pneumoniae [1], the “Binding (ability to bind M. pneumoniae)” value is recorded as “+ (2-4 μg)” and the “binding … to glycolipid (in words)” value is recorded as “weakly”. On to colominic acid, for which the “inhibition of binding to sulfatide at 100 μg/ml (in words)” value (“inhibition … at 100 μg/ml (in words)” for short) in assay [4] was “did not inhibit binding”.

In the case of “sialyllactofucopentaosyl-(III)-ceramide [Sialylneolactofucopenta-osylcer]”, the “Binding (ability to bind M. pneumoniae)” value in the assay on M. pneumoniae [1] is “- (no binding to 4 μg of lipid)”. In the case of Bovine serum Albumin: protein, the Relative binding activity with M. pneumoniae [3] is given as less than 0.01.

Turning to “IV^3 -[3'SO3 GlcA]- nLcOse4Cer [SO4 -Glucuronosylparagloboside]”, in the assay on M. pneumoniae [1], the “Binding (ability to bind M. pneumoniae)” value is reported as “- (no binding to 4 μg of lipid)” and the “binding … to glycolipid (in words)” value was “does not bind”.

As to Human Transferrin: protein, in the assay with M. pneumoniae [3], the “M. pneumoniae adhesion” value is “no binding of M. pneumoniae was detected” and the Relative binding activity was less than 0.01. Take “IV^3 GalnLcOse4Cer [α-Galactosylparagloboside]”: the “Binding (ability to bind M. pneumoniae)” value with M. pneumoniae [1] is “+ (2-4 μg)”. Further, the “binding … to glycolipid (in words)” value in the assay on M. pneumoniae [1] (listed as o-galactosylparagloboside) is “weakly”. For “α2-3-sialyl-paragloboside (NeuAc) [Sialylparagloboside]”, in the assay with M. pneumoniae [1], the “Binding (ability to bind M. pneumoniae)” value is reported as “- (no binding to 4 μg of lipid)” and the “binding … to glycolipid (in words)” value is “No binding was detected”. On to hyaluronate, for which the “inhibition … at 100 μg/ml (in words)” value in assay [4] is “did not inhibit binding”. “Lacto-N-triaosylceramide [Lacto- --N-triaosylcer]”: the “binding … to glycolipid (in words)” value in the assay with M. pneumoniae [1] is “weakly”. dextran: in assay [4] (sulfatide adsorbed on plastic), the “inhibition of binding to sulfatide (in words)” value was “no effect”.

As for “Lactosylceramide-II^3 -sulfate [Lactosylsulfatide]”, the “Binding (ability to bind M. pneumoniae)” value in the assay with M. pneumoniae [1] was “+++ (positive binding to less than 0.5 μg)”. The “binding … to glycolipid (in words)” value with M. pneumoniae [1] (listed as lactosyl sulfatide) is “bound”; in the assay on M. pneumoniae [1] (listed as lactosylsulfatide), “bound strongly”. For “α-Ga121actoisooctaosylceramide [I-active Gal2 - lactoisooctaosylcer]”, the “Binding (ability to bind M. pneumoniae)” value with M. pneumoniae [1] is “- (no binding to 4 μg of lipid)”.

As to Asialo GM1, the “Binding (ability to bind M. pneumoniae)” value with M. pneumoniae [1] is recorded as “- (no binding to 4 μg of lipid)”. With chondroitin sulfate, the “inhibition … at 100 μg/ml (in words)” value in assay [4] is listed as “did not inhibit binding”. Regarding “β-galactosylalkylacylglycerol-I^3 -sulfate [Seminolipid]”, in the assay on M. pneumoniae [1], the “Binding (ability to bind M. pneumoniae)” value was “+++ (positive binding to less than 0.5 μg)” and the “binding … to glycolipid (in words)” value was “bound strongly; also recorded: bound”.

heparin: the “inhibition … at 100 μg/ml (in words)” value in assay [4] is reported as “did not inhibit binding”. Same read-out and setting: with fucoidin the entry was “did not inhibit binding”.

As to GT1b, in the assay with M. pneumoniae [1], the “Binding (ability to bind M. pneumoniae)” value is given as “- (no binding to 4 μg of lipid)” and the “binding … to glycolipid (in words)” value was “No binding was detected”. On the same counts, the results for GD1a are “- (no binding to 4 μg of lipid)” and “No binding was detected”.

As to GD1^b, in the assay with M. pneumoniae [1], the “Binding (ability to bind M. pneumoniae)” value is “- (no binding to 4 μg of lipid)” and the “binding … to glycolipid (in words)” value is on record as “No binding was detected”. Consider “Human platelet thrombospondin: adhesive glycoprotein”, for which, in the assay with M. pneumoniae [3], the “M. pneumoniae adhesion” value is “strongly promote adhesion”, the “amount of glycoprotein coated that promotes adhesion” value is given as “less than 10 ng” and the Relative binding activity stood at 0.7.

The values above are taken from patent publication US5089479A, “Adhesion of Mycoplasma pneumoniae and Mycoplasma hominus to sulfatide” (priority 1988, dated 1992).
